Reference: ChEMBL document CHEMBL5352452, “Design, synthesis and pharmacological evaluation of β-carboline derivatives as potential antitumor agent via targeting autophagy” (Eur J Med Chem, 2023)
Calls of active or inactive are those of the source. The calls are words filed in the database; no cut-off is given here.

Tests used:
HCT-116 [1] = assay: Induction of apoptosis in ATG5 knockout human HCT-116 cells assessed as increase in caspase 3 expression upto 4 uM incubated for 24 hrs by Western blot analysis; format: functional, cell-based
HCT-116 [2] = assay: Induction of apoptosis in human HCT-116 cells assessed as necrotic cells at 2 uM incubated for 24 hrs by annexin V FITC/propidium iodide staining based flow cytometry (reference value: 7.7%); format: functional
HCT-116 [3] = assay: Upregulation of inflammatory response gene in human HCT-116 cells at 2 uM incubated for 24 hrs by RNA sequencing analysis; format: functional, cell-based
HCT-116 [4] = assay: Downregulation of mTORC1 signaling pathway in human HCT-116 cells at 2 uM incubated for 24 hrs by RNA sequencing analysis; format: functional, cell-based
HCT-116 [5] = assay: Induction of apoptosis in human HCT-116 cells assessed as increase in cleaved caspase 3 expression upto 5 uM incubated for 24 hrs by Western blot analysis; format: functional, cell-based
HCT-116 [6] = assay: Induction of apoptosis in human HCT-116 cells assessed as early apoptotic cells at 1 uM incubated for 24 hrs by annexin V FITC/propidium iodide staining based flow cytometry (reference value: 4.7%); format: functional
HCT-116 [7] = assay: Induction of apoptosis in ATG7 knockout human HCT-116 cells assessed as increase in caspase 3 expression upto 4 uM incubated for 24 hrs by Western blot analysis; format: functional, cell-based
HCT-116 [8] = assay: Downregulation of DNA repair gene in human HCT-116 cells at 2 uM incubated for 24 hrs by RNA sequencing analysis; format: functional, cell-based
MCF7 = assay: Antiproliferative activity against human MCF7 cells assessed as inhibition of cell growth measured after 48 hrs by MTT assay; format: functional, cell-based; conditions: MCF7, 48 h
HCT-116 [9] = assay: Induction of autophagy in human HCT-116 cells expressing assessed as LC3B-EGFP-mCherry at 2 to 4 uM incubated for 24 hrs by DAPI staining based confocal microscopic analysis; format: functional, cell-based; conditions: dose 2-4 µM
HCT-116 [10] = assay: Induction of autophagy in human HCT-116 cells assessed as increase in LC3-II expression upto 5 uM incubated for 24 hrs by Western blot analysis; format: functional, cell-based
HCT-116 [11] = assay: Induction of apoptosis in human HCT-116 cells assessed as necrotic cells at 1 uM incubated for 24 hrs in presence of Z-VAD-FMK by annexin V FITC/propidium iodide staining based flow cytometry (reference value: 2.9 %); format: functional
HT-29 = assay: Antiproliferative activity against human HT-29 cells assessed as inhibition of cell growth measured after 48 hrs by MTT assay; format: functional, cell-based; conditions: HT-29, 48 h
HCT-116 [12] = assay: Induction of autophagy in human HCT-116 cells expressing ATG7-FLAG assessed as increase in LC3-II expression upto 4 uM measured after 24 hrs by Western blot analysis; format: functional, cell-based
SK-OV-3 = assay: Antiproliferative activity against human SK-OV-3 cells assessed as inhibition of cell growth measured after 48 hrs by MTT assay; format: functional, cell-based; conditions: SK-OV-3, 48 h
[13] = Antiproliferative activity against human BIU-87 cells assessed as inhibition of cell growth measured after 48 hrs by MTT assay; format: functional, cell-based; conditions: BIU87, 48 h
HCT-116 [14] = assay: Induction of apoptosis in human HCT-116 cells assessed as early apoptotic cells at 2 uM incubated for 24 hrs in presence of Z-VAD-FMK by annexin V FITC/propidium iodide staining based flow cytometry (reference value: 6.3 %); format: functional
HCT-116 [15] = assay: Induction of morphological changes in human HCT-116 cells assessed as reduction in intercellular contact at 2 to 6 uM measured after 24 hrs by microscopic analysis; format: functional, cell-based; conditions: dose 2-6 µM
HCT-116 [16] = assay: Upregulation of hedgehog signaling pathway in human HCT-116 cells at 2 uM incubated for 24 hrs by RNA sequencing analysis; format: functional, cell-based
HCT-116 [17] = assay: Induction of apoptosis in p53 knockout human HCT-116 cells assessed as increase in cleaved caspase 3 expression upto 5 uM incubated for 24 hrs by Western blot analysis; format: functional, cell-based
HCT-116 [18] = assay: Inhibition of colony formation in ATG5 knockout human HCT-116 cells upto 4 uM […] by crystal violet staining based analysis; format: functional, cell-based
HCT-116 [19] = assay: Induction of apoptosis in human HCT-116 cells assessed as necrotic cells at 2 uM incubated for 24 hrs in presence of Z-VAD-FMK by annexin V FITC/propidium iodide staining based flow cytometry (reference value: 2.9 %); format: functional
HCT-116 [20] = assay: Induction of autophagy in human HCT-116 cells assessed as increase in LC3-II expression at 3 uM measured after 48 to 60 hrs by Western blot analysis; format: functional, cell-based; conditions: time 48-60 hrs
HCT-116 [21] = assay: Antiproliferative activity against human HCT-116 cells expressing ATG5-FLAG assessed as inhibition of cell growth measured after 24 hrs by CCK-8 assay; format: functional, cell-based; conditions: HCT-116, 24 h
A-375 = assay: Antiproliferative activity against human A-375 cells assessed as inhibition of cell growth measured after 48 hrs by MTT assay; format: functional, cell-based; conditions: A-375, 48 h
HCT-116 [22] = assay: Upregulation of bile acid metabolism pathway in human HCT-116 cells at 2 uM incubated for 24 hrs by RNA sequencing analysis; format: functional, cell-based
HCT-116 [23] = assay: Induction of apoptosis in human HCT-116 cells assessed as late apoptotic cells at 1 uM incubated for 24 hrs in presence of Z-VAD-FMK by annexin V FITC/propidium iodide staining based flow cytometry (reference value: 4.6 %); format: functional
HCT-116 [24] = assay: Upregulation of IFN-alpha response pathway in human HCT-116 cells at 2 uM incubated for 24 hrs by RNA sequencing analysis; format: functional, cell-based
HCT-116 [25] = assay: Induction of apoptosis in human HCT-116 cells assessed as early apoptotic cells at 2 uM incubated for 24 hrs by annexin V FITC/propidium iodide staining based flow cytometry (reference value: 4.7%); format: functional
KB = assay: Antiproliferative activity against human KB cells assessed as inhibition of cell growth measured after 48 hrs by MTT assay; format: functional, cell-based
HCT-116 [26] = assay: Antiproliferative activity against ATG5 knockout human HCT-116 cells assessed as inhibition of cell growth measured after 24 hrs by CCK-8 assay; format: functional, cell-based; conditions: HCT-116, 24 h
HCT-116 [27] = assay: Induction of apoptosis in human HCT-116 cells assessed as viable cells at 2 uM incubated for 24 hrs by annexin V FITC/propidium iodide staining based flow cytometry (reference value: 83 %); format: functional; conditions: read-out: Activity
CWR22R = assay: Antiproliferative activity against human 22Rv1 cells assessed as inhibition of cell growth measured after 48 hrs by MTT assay; format: functional, cell-based; conditions: 22Rv1, 48 h
HCT-116 [28] = assay: Antiproliferative activity against human HCT-116 cells assessed as inhibition of cell growth at 1 to 4 uM by CCK-8 assay; format: functional, cell-based; conditions: dose 1-4 µM, time <= 7.0 day, TDE = time-dependent effect
HCT-116 [29] = assay: Induction of apoptosis in human HCT-116 cells assessed as late apoptotic cells at 2 uM incubated for 24 hrs in presence of Z-VAD-FMK by annexin V FITC/propidium iodide staining based flow cytometry (reference value: 4.6 %); format: functional
HCT-116 [30] = assay: Induction of apoptosis in human HCT-116 cells assessed as viable cells at 2 uM incubated for 24 hrs in presence of Z-VAD-FMK by annexin V FITC/propidium iodide staining based flow cytometry (reference value: 86.2 %); format: functional; conditions: read-out: Activity
HCT-116 [31] = assay: Induction of morphological changes in human HCT-116 cells assessed as appearance of round cells at 2 to 6 uM measured after 24 hrs by microscopic analysis; format: functional, cell-based; conditions: dose 2-6 µM

With `CN1CCN(Cc2cc3c4ccccc4n(CCCc4ccccc4)c3c(CN3CCN(C)CC3)n2)CC1` the Activity (HCT-116 [1]) was “inactive”, the Activity (HCT-116 [2]) was 4.9% and the Activity (HCT-116 [3]) was “Active”. For the same compound, the Activity (HCT-116 [4]) was “Active”, the Activity (HCT-116 [5]) was “inactive” and the Activity (HCT-116 [6]) was 5.1%. The Activity (HCT-116 [7]) was “inactive”, the Activity (HCT-116 [8]) was “Active” and the IC50 (MCF7) was 13.5 µM. For the same compound, the Activity (HCT-116 [9]) was “Active”, the Activity (HCT-116 [10]) was “Active” and the Activity (HCT-116 [11]) was 3.6%. For the same compound, the IC50 (HT-29) was 2.02 µM, the Activity (HCT-116 [12]) was “Active” and the IC50 (SK-OV-3) was 10.6 µM. For the same compound, the IC50 [13] was 4.53 µM, the Activity (HCT-116 [14]) was 5.4% and the Activity (HCT-116 [15]) was “Active”. The Activity (HCT-116 [16]) was “Active”, the Activity (HCT-116 [17]) was “inactive” and the inhibition (HCT-116 [18]) was “inactive”. For the same compound, the Activity (HCT-116 [19]) was 6.3%, the Activity (HCT-116 [20]) was “inactive” and the IC50 (HCT-116 [21]) was 4.57 µM. The IC50 (A-375) was 11.5 µM, the Activity (HCT-116 [22]) was “Active” and the Activity (HCT-116 [23]) was 4.9%. The Activity (HCT-116 [24]) was “Active”, the Activity (HCT-116 [25]) was 6.2% and the IC50 (KB) was 8.12 µM. It also gave an IC50 (HCT-116 [26]) of 7.36 µM, a viability at 2 µM (HCT-116 [27]) of 82.1% and an IC50 (CWR22R) of 3.86 µM. The Activity (HCT-116 [28]) was “Tde”, the Activity (HCT-116 [29]) was 4.6% and the viability at 2 µM (HCT-116 [30]) was 83.7%. For the same compound, the Activity (HCT-116 [31]) was “Active”.
